Patent publication US8586611B2 (priority 2005, dated 2013)

Key:
Format in all cases: in vivo
Plasmopara viticola = experiment: Test B: grape downy mildew, spray 24 h after inoculation (disease rating, 100 = 100% disease control)
Description: (§1) The test compounds were first dissolved in acetone in an amount equal to 3% of the final volume and then suspended at the desired concentration (in ppm) in acetone and purified water (50/50 mix by volume) containing 250 ppm of the surfactant Trem® 014 (polyhydric alcohol esters). The resulting test suspensions were then used in tests A-E. Spraying a 200 ppm test suspension to the point of run-off on the test plants was the equivalent of a rate of 500 g/ha.
Grape seedlings were inoculated with a spore suspension of Plasmopara viticola (the causal agent of grape downy mildew) and incubated in a saturated atmosphere at 20° C. for 24 h. After a short drying period, the test suspension was sprayed to the point of run-off on the grape seedlings and then moved to a growth chamber at 20° C. for 5 days, after which the test units were placed back into a saturated atmosphere at 20° C. for 24 h. Upon removal, disease ratings were made.
(§2) Results for Tests A-F are given in Table A. In the table, a rating of 100 indicates 100% disease control and a rating of 0 indicates no disease control (relative to the controls). A dash (-) indicates no test results.

[1] = system: Erysiphe graminis f. sp. tritici; experiment: Test E: wheat powdery mildew, spray the day before inoculation (disease rating, 100 = 100% disease control)
Description: as §1
The test suspension was sprayed to the point of run-off on wheat seedlings. The following day the seedlings were inoculated with a spore dust of Erysiphe graminis f. sp. tritici, (the causal agent of wheat powdery mildew) and incubated in a growth chamber at 20° C. for 7 days, after which disease ratings were made.
as §2

Phytophthora infestans [2] = experiment: whole plant or invertebrate; conditions: tomato late blight
Phytophthora infestans [3] = experiment: whole plant or invertebrate; conditions: tomato late blight; remark: listed apart in the source
[4] = sprayed 24 h after inoculation, unmarked compounds (no asterisk, not 40 or 10 ppm)
[5] = sprayed the day before inoculation, 7 days at 20° C., unmarked compounds (no asterisk, not 40 or 10 ppm)
[6] = sprayed the day before inoculation, unmarked compounds (no asterisk, not 40 or 10 ppm)
[7] = sprayed 17 h after inoculation, unmarked compounds (no asterisk, not 40 or 10 ppm)
[8] = spray 24 h after inoculation, compounds without asterisk (not 40 or 10 ppm)
[9] = spray the day before inoculation, compounds without asterisk (not 40 or 10 ppm)
[10] = spray the day before inoculation, tested at 10 ppm
[11] = spray 17 h after inoculation, compounds without asterisk (not 40 or 10 ppm)
[12] = sprayed 24 h after inoculation, tested at 10 ppm (**)
[13] = sprayed the day before inoculation, tested at 10 ppm (**)
[14] = sprayed 17 h after inoculation, tested at 10 ppm (**)

SMILES	Test B disease rating (100 = 100% disease control, 0 = no disease control) (Plasmopara viticola; [4])	Test C disease rating (100 = 100% disease control, 0 = no disease control) (Phytophthora infestans [2]; [6])	Test D disease rating (100 = 100% disease control, 0 = no disease control) (Phytophthora infestans [3]; [7])	Test B disease rating (100 = 100% disease control, 0 = no disease control) (Plasmopara viticola; [8])	Test E disease rating (100 = 100% disease control, 0 = no disease control) [1, 9]	Test C disease rating (100 = 100% disease control, 0 = no disease control) (Phytophthora infestans [2]; [9])	other results
Cc1cc(C(F)(F)F)nn1CC(=O)N1CCC(c2nc(C(=O)NC3CCCc4ccccc43)cs2)CC1 (stereo not drawn) [compound 294]	99	100	96				Test E disease rating (100 = 100% disease control, 0 = no disease control) [1, 5]: 0
COCC(c1ccccc1)N(C)C(=O)c1csc(C2CCN(C(=O)Cc3cc(C)ccc3C)CC2)n1 (stereo not drawn) [compound 109]				99%	94%	99%	
Cc1cc(C(F)(F)F)nn1CC(=O)N1CCC(c2nc(C(=O)N(C)C3CCc4cc(Cl)ccc43)cs2)CC1 (stereo not drawn) [compound 221]							Test B disease rating (100 = 100% disease control, 0 = no disease control) (Plasmopara viticola; spray 24 h after inoculation, tested at 10 ppm): 77%; Test E disease rating (100 = 100% disease control, 0 = no disease control) [1, 10]: 0%; Test C disease rating (100 = 100% disease control, 0 = no disease control) (Phytophthora infestans [2]; [10]): 99%; Test D disease rating (100 = 100% disease control, 0 = no disease control) (Phytophthora infestans [3]; spray 17 h after inoculation, tested at 10 ppm): 98%
Cc1ccc(C)c(CC(=O)N2CCC(c3nc(C(=O)N(C)C4CCCc5sccc54)cs3)CC2)c1 (stereo not drawn) [compound 134]				97%	0%	51%	Test D disease rating (100 = 100% disease control, 0 = no disease control) (Phytophthora infestans [3]; [11]): 100%
CCN(C(=O)c1csc(C2CCN(C(=O)Cn3nc(C(F)(F)F)cc3C)CC2)n1)[C@@H]1CCCc2ccccc21 [compound 306]	96	100	83				
Cc1ccc(C)c(CC(=O)N2CCC(c3nc(C(=O)N(C)[C@H](C)c4ccc5ccccc5c4)cs3)CC2)c1 [compound 106]				0%	0%	24%	
Cc1ccc(C)c(CC(=O)N2CCC(c3nc(C(=O)N(C)[C@H](C)c4cccc5ccccc45)cs3)CC2)c1 [compound 105]				96%	0%	100%	
Cc1cc(C(F)(F)F)nn1CC(=O)N1CCC(c2nc(C(=O)N[C@H](C)c3ccccc3)cs2)CC1 [compound 301]	99	99	80				
C=CCN(C(=O)c1csc(C2CCN(C(=O)Cn3nc(C(F)(F)F)cc3C)CC2)n1)[C@H](C)c1ccccc1 [compound 304]	72	57	26				
CCN(C(=O)c1csc(C2CCN(C(=O)Cn3nc(C(F)(F)F)cc3C)CC2)n1)[C@H](C)c1ccccc1 [compound 302]	86	95	26				
Cc1cc(Br)nn1CC(=O)N1CCC(c2nc(C(=O)N(C)[C@@H]3CCCc4ccccc43)cs2)CC1 [compound 258]							Test B disease rating (100 = 100% disease control, 0 = no disease control) (Plasmopara viticola; [12]): 100; Test C disease rating (100 = 100% disease control, 0 = no disease control) (Phytophthora infestans [2]; [13]): 100; Test D disease rating (100 = 100% disease control, 0 = no disease control) (Phytophthora infestans [3]; [14]): 99
Cc1cc(Cl)nn1CC(=O)N1CCC(c2nc(C(=O)N(C)[C@@H]3CCCc4ccccc43)cs2)CC1 [compound 257]							Test B disease rating (100 = 100% disease control, 0 = no disease control) (Plasmopara viticola; [12]): 99; Test C disease rating (100 = 100% disease control, 0 = no disease control) (Phytophthora infestans [2]; [13]): 100; Test D disease rating (100 = 100% disease control, 0 = no disease control) (Phytophthora infestans [3]; [14]): 99
C=CC(c1ccccc1)N(C)C(=O)c1csc(C2CCN(C(=O)Cc3cc(C)ccc3C)CC2)n1 (stereo not drawn) [compound 103]				100%	79%	71%	
CCCN(C(=O)c1csc(C2CCN(C(=O)Cn3nc(C(F)(F)F)cc3C)CC2)n1)[C@H](C)c1ccccc1 [compound 303]	45	95	26				
COc1ccc(CCN(C)C(=O)c2csc(C3CCN(C(=O)Cc4cc(C)ccc4C)CC3)n2)cc1OC [compound 171]				0%	0%		Test D disease rating (100 = 100% disease control, 0 = no disease control) (Phytophthora infestans [3]; [11]): 24%
Cc1ccc(C)c(CC(=O)N2CCC(c3nc(C(=O)N(C)C(C#N)c4ccccc4)cs3)CC2)c1 (stereo not drawn) [compound 102]				100%	0%	99%	
CC[C@H](c1ccccc1)N(C)C(=O)c1csc(C2CCN(C(=O)Cc3cccc(C(F)(F)F)c3)CC2)n1 [compound 108]				99%	0%	100%	
Cc1cc(C(F)(F)F)nn1CC(=O)N1CCC(c2nc(C(=O)N[C@@H]3CCCc4ccccc43)cs2)CC1 [compound 305]	100	100	99				
Cc1cc(C(F)(F)F)nn1CC(=O)N1CCC(n2nnc(C(=O)N(C)[C@@H]3CCCc4ccccc43)n2)CC1 [compound 256]							Test B disease rating (100 = 100% disease control, 0 = no disease control) (Plasmopara viticola; sprayed 24 h after inoculation, tested at 40 ppm (*)): 99; Test C disease rating (100 = 100% disease control, 0 = no disease control) (Phytophthora infestans [2]; sprayed the day before inoculation, tested at 40 ppm (*)): 100; Test D disease rating (100 = 100% disease control, 0 = no disease control) (Phytophthora infestans [3]; sprayed 17 h after inoculation, tested at 40 ppm (*)): 86
C[C@H](NC(=O)c1csc(C2CCN(C(=O)Cc3ccccc3Cl)CC2)n1)c1ccccc1 [compound 260]	14	0					Test E disease rating (100 = 100% disease control, 0 = no disease control) [1, 5]: 0
CC[C@H](c1ccccc1)N(C)C(=O)c1csc(C2CCN(C(=O)Cc3cccc(Br)c3)CC2)n1 [compound 107]				99%	0%	100%	
C=CCC(c1ccccc1)N(C)C(=O)c1csc(C2CCN(C(=O)Cc3cc(C)ccc3C)CC2)n1 (stereo not drawn) [compound 104]				100%	0%	87%	
